Measured values from ChEMBL document CHEMBL1201862, “PubChem BioAssay data set” (2004).
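In this assay, cells in 96-well plates receive the compound at five concentrations for 48 hours. Endpoints are linearly interpolated between the surrounding concentrations. Abbreviation: GI50, concentration required for 50% inhibition of growth.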 Active and inactive are the calls of the source. Cut-off read from the data, not from the text of the source: active = GI50 up to about 1.1 µM and inactive = higher.

Experiments:
Experiment in all cases: growth of human tumour cells (NCI), 48 h
[1] = test system: Hs-578T
[2] = test system: MCF7
[3] = test system: HOP-92
[4] = test system: RXF 393
[5] = test system: DU-145
[6] = test system: HL-60
[7] = test system: SF-295
[8] = test system: NCI-H522
[9] = test system: SF-539
[10] = test system: NCI/ADR-RES
[11] = test system: U-251
[12] = test system: Malme-3M
[13] = test system: NCI-H23
[14] = test system: KM12
[15] = test system: 786-0
[16] = test system: OVCAR-5
[17] = test system: M14
[18] = test system: UO-31
[19] = test system: CAKI-1
[20] = test system: SK-OV-3

Measured: GI50

COc1ccc(C#Cn2nnc3ccccc32)cc1
inactive: [1] > 100 µM | [2] 41.8 µM | [3] > 100 µM | [4] 97.7 µM | [5] 41 µM | [6] 21.6 µM | [7] > 100 µM | [8] 48 µM | [9] > 100 µM | [10] > 100 µM | [11] > 100 µM | [12] > 100 µM | [13] > 100 µM | [14] 96.4 µM | [15] > 100 µM | [16] > 100 µM | [17] > 100 µM | [18] 2.15 µM | [19] 32.1 µM

CC#CC#C/C=C1/O[C@]2(CCC(OC(C)=O)CO2)[C@@H]2O[C@H]12 (some centres not stated)
inactive: [1] 40.3 µM | [2] 26.5 µM | [3] 28.1 µM | [4] 18.5 µM | [5] 30.5 µM | [6] 18.4 µM | [7] 35.4 µM | [8] 15.3 µM | [10] 21.7 µM | [20] 51.9 µM | [11] 17.9 µM | [12] 14.7 µM | [13] 19.4 µM | [14] 19.9 µM | [15] 18.2 µM | [16] 30.5 µM | [17] 18.4 µM | [18] 20.1 µM | [19] 25.5 µM

CC(=O)OC/C=C/Cn1ncc(=O)[nH]c1=O
inactive: [1] > 100 µM | [2] > 100 µM | [3] > 100 µM | [4] > 100 µM | [5] > 100 µM | [6] > 100 µM | [8] > 100 µM | [9] > 100 µM | [10] > 100 µM | [11] > 100 µM | [12] > 100 µM | [13] > 10 µM | [14] > 100 µM | [16] > 100 µM | [17] > 100 µM | [18] > 100 µM | [19] > 100 µM

CCc1c(CNC2=NCCN2)c(CC)c(CNC2=NCCN2)c(CC)c1CNC1=NCCN1
inactive: [1] > 100 µM | [2] > 100 µM | [3] > 100 µM | [4] > 100 µM | [5] > 100 µM | [7] > 100 µM | [8] > 100 µM | [9] > 100 µM | [10] > 100 µM | [20] > 100 µM | [11] > 100 µM | [12] > 100 µM | [13] > 100 µM | [14] > 100 µM | [15] > 100 µM | [16] > 100 µM | [17] > 100 µM | [18] > 100 µM | [19] > 100 µM

N=C1C(O)C2(I)c3ccccc3N3C(=N)C(O)C4c5ccccc5N1C4C32 (configuration not stated)
inactive: [1] 61.8 µM | [2] 19.6 µM | [3] 37.4 µM | [4] > 100 µM | [5] > 100 µM | [6] 20.2 µM | [7] 47.8 µM | [8] 25.9 µM | [10] 61.2 µM | [20] 40.6 µM | [11] 22.1 µM | [12] 21.1 µM | [13] 35.6 µM | [14] 15.1 µM | [15] 30.8 µM | [16] > 100 µM | [17] 59 µM | [18] > 100 µM | [19] 93.5 µM

O=c1[nH]c(=O)n(COCCO)c2ccsc12
inactive: [1] > 100 µM | [2] > 100 µM | [3] > 100 µM | [4] > 100 µM | [5] > 100 µM | [6] > 100 µM | [7] > 100 µM | [8] > 100 µM | [9] > 100 µM | [10] > 100 µM | [11] > 100 µM | [12] > 100 µM | [13] > 100 µM | [14] > 100 µM | [15] > 100 µM | [16] > 100 µM | [17] > 100 µM | [18] > 100 µM | [19] > 100 µM
